Measured values published in patent US8440625B2, “Secreted protein acidic and rich in cysteine (SPARC) as chemotherapeutic sensitizers” (University of British Columbia, priority 2006, dated 2013).
Entries after “also recorded” stand apart in the source; their conditions may differ.

B1: Secreted protein acidic and rich in cysteine (protein, listed as Homo sapiens)
chain: MRAWIFFLLCLAGRALAAPQQEALPDETEVVEETVAEVTEVSVGANPVQVEVGEFDDGAEETEEEVVAENPCQNHHCKHGKVCELDENNTPMCVCQDPTSCPAPIGEFEKVCSNDNKTFDSSCHFFATKCTLEGTKKGHKLHLDYIGPCKYIPPCLDSELTEFPLRMRDWLKNVLVTLYERDEDNNLLTEKQKLRVKKIHENEKRLEAGDHPVELLARDFEKNYNMYIFPVHWQFGQLDQHPIDGYLSHTELAPLRAPLIPMEHCTTRFFETCDLDNDKYIALDEWAGCFGIKQKDIDKDLVI
notes: 303 amino acid SPARC protein, also known as osteonectin

Columns and labels:
MIP/CPT cells = assay: Transient transfection of SPARC fragments, cell viability (MTS) with irinotecan, resistant cells; type: cell-based; settings: cells transfected with control (empty vector), 500 uM CPT-11
Description: Polynucleotide fragments corresponding to SEQ ID NO: 2, SEQ ID NO: 4 or SEQ ID NO: 6 were amplified by PCR and inserted into the pSecTag vector (Invitrogen), and verified by sequencing.
Colorectal cell lines MIP101 and MIP/CPT cells were maintained in Dulbecco's modified Eagle's medium (DMEM) (Invitrogen) supplemented with 10% fetal bovine serum (FBS) (Invitrogen), 1% penicillin/streptomycin (Invitrogen) at 37° C. and 5% CO2.
(§1) Resistant MIP101 cells were developed following long-term incubation with incremental concentrations of 5 fluorouracil (5-FU) (10-500 uM), irinotecan (CPT) (1-50 uM; Pharmacia), cisplatin (CIS) (1-100 uM) or etoposide (ETO) (0.1-5 uM: Sigma-Aldrich). The concentration of each agent was increased 10% every 2 weeks for a 6 month period.
Transient transfections were performed as previously described (Tai TC et al., 2001. J Neurochem; 76:1851-9) Briefly, MIP 101 colorectal cancer cells and resistant MIP/CPT cells grown to 50-60% confluency in 96-well tissue culture plates were transfected with 1.0 μg of vector (control) or vector+SPARC fragments using PEI transfection (Tai, T. C. et al., 2002. Mol Pharmacol 61:1385-92). […] Cell proliferation was assessed by MTS assay (Promega). […]

MIP/5FU cells = assay: Peptide assay, cell viability (MTS), 5FU resistant cells; type: cell-based; settings: for cell viability / sensitivity to 5-FU: peptide 96 or 200 μg/ml plus 5-FU 500 μM, compared to 5-FU alone
Description: as §1
(§2) Sensitive MIP 101 and resistant MIP/5FU cells were seeded at a density of 8,000 cells/well (96-well plate) in DMEM supplemented with 10% FBS, 1% penicillin/streptomycin. After incubation at 37° C. with 5% CO2 for 48 hrs, the media was removed and fresh serum-free conditioned medium (VP-SFM, Invitrogen) containing the peptide of interest was incubated for an additional 48 hrs in the presence or absence of 500 μM 5-FU. Cell viability was assessed by MTS assay.
(§3) Peptides were custom synthesized by Sigma. Peptides A, A1, A2, A3 were dissolved in 0.1% DMSO. Peptides B8, B14, B8-scramble and B14-scramble were dissolved in PBS. For the MTS cell viability assay, a dose response curve was obtained using a “high” peptide concentration of 200 μg/ml, and a “low” peptide concentration of […].
(§4) For the MTS assay, 3-(4,5-dimethylthiazol-2-yl)-5-(3-carboxy-methoxyphenyl)-2-(4-sulfophenyl)-2H-tetrazolium inner salt (MTS) and phenazine methosulfate (PMS), purchased from Promega (Madison, Wis.), were mixed in the proportions 2:0.92 μg/ml, and 25 μl of the mixture was added to each well. After incubation at 37° C. with 5% CO2 for 2 h, the absorbance of each well at 490 nm was measured in a 96-well plate reader (Versa Max, version 4.8, Molecular Devices Co.) according to the manufacturer's instructions. Cell viability was expressed as a percentage of control.

MIP 101 cells = assay: Peptide assay, cell viability (MTS), 5FU sensitive cells; type: cell-based; settings: for cell viability: 96 or 200 μg/ml
Description: as §2, §3, §4

resistant tumours = settings: protein administered; response of resistant tumours to 5-fluorouracil, irinotecan, cisplatin or etoposide; cited from earlier work
[1] = peptide alone, high concentration (200 μg/ml)
[2] = peptide high concentration (200 μg/ml) in combination with 5-FU 500 μM

Molecule	% cell viability (MIP 101 cells; [1])	% cell viability (MIP 101 cells; [2])	% cell viability (MIP/5FU cells; [1])	% cell viability (MIP/5FU cells; [2])	also measured
CCc1c2c(nc3ccc(OC(=O)N4CCC(N5CCCCC5)CC4)cc13)-c1cc3c(c(=O)n1C2)COC(=O)[C@]3(O)CC [CPT-11, irinotecan]					cell viability (MIP/CPT cells): remained viable
O=c1[nH]cc(F)c(=O)[nH]1 [Peptide 5-FU, 5-fluorouracil, reference compound]					cell viability (MIP/5FU cells; 5-FU alone (500 μM)): greater viability; also recorded: no effect on cell viability
A1: first 17 amino acids of the full length SPARC protein: MRAWIFFLLCLAGRALA (listed as Homo sapiens) [Peptide A1]	did not significantly affect	did not significantly affect	did not significantly affect	did not significantly affect	
A2: first 17 amino acids of SPARC with additional N-terminal residues: ACLPLRVPSTMRAWIFFLLCLAGRALA (listed as Homo sapiens) [Peptide A2]	did not significantly affect	did not significantly affect	did not significantly affect	did not significantly affect	
A3: first 17 amino acids of SPARC with additional N-terminal residues: CLPPACLPLRVPSTMRAWIFFLLCLAGRALA (listed as Homo sapiens) [Peptide A3]	did not significantly affect	did not significantly affect	did not significantly affect	did not significantly affect	
A: first 17 amino acids of full length SPARC with additional N-terminal residues: ESALCLPPACLPLRVPSTMRAWLFFLLCLAGRALA (ESALCLPPACLPLRVPSTMRAWIFFLLCLAGRALA; listed as Homo sapiens)	did not significantly affect	did not significantly affect	did not significantly affect	did not significantly affect	
B8-SCR: scrambled B8 negative control peptide QPLEAVQPTAVEEDAEVETTEEV (B8 scrambled) [Peptide B8-SCR, reference compound]	did not significantly affect	did not significantly affect	did not significantly affect	did not significantly affect	
B14: SPARC peptide CQNHHCKHGKVCELDENNTPMCVCQDPTSCP (SEQ ID NO: 9) (listed as Homo sapiens) [Peptide B14]					cell viability (MIP 101 cells; peptide alone): did not significantly affect viability; cell viability / sensitivity to 5-FU (MIP/5FU cells): cell viability decreased; cell viability (MIP/5FU cells; peptide alone, 96 or 200 μg/ml): did not significantly affect viability
H-APQQEALPDETEVVEETVAEVTE-OH [Peptide B8]					cell viability (MIP 101 cells; peptide alone): did not affect cell viability; cell viability / sensitivity to 5-FU (MIP/5FU cells): increasing sensitivity of the resistant cells; cell viability (MIP/5FU cells; peptide alone, 96 or 200 μg/ml): did not affect cell viability
B1					chemosensitizing activity (resistant tumours): chemosensitizing activity has been demonstrated
